We go through 16 molecules from patent US20200291018A1, “TAM KINASE INHIBITORS” (SYROS PHARMACEUTICALS, INC., priority 2017, published 2020).

A value given as a limit tells only on which side of the number the result lay.

Assay [1] has as its target T1, MERTK (Homo sapiens, UniProt Q12866).
T1 sequence (Q12866 21-999): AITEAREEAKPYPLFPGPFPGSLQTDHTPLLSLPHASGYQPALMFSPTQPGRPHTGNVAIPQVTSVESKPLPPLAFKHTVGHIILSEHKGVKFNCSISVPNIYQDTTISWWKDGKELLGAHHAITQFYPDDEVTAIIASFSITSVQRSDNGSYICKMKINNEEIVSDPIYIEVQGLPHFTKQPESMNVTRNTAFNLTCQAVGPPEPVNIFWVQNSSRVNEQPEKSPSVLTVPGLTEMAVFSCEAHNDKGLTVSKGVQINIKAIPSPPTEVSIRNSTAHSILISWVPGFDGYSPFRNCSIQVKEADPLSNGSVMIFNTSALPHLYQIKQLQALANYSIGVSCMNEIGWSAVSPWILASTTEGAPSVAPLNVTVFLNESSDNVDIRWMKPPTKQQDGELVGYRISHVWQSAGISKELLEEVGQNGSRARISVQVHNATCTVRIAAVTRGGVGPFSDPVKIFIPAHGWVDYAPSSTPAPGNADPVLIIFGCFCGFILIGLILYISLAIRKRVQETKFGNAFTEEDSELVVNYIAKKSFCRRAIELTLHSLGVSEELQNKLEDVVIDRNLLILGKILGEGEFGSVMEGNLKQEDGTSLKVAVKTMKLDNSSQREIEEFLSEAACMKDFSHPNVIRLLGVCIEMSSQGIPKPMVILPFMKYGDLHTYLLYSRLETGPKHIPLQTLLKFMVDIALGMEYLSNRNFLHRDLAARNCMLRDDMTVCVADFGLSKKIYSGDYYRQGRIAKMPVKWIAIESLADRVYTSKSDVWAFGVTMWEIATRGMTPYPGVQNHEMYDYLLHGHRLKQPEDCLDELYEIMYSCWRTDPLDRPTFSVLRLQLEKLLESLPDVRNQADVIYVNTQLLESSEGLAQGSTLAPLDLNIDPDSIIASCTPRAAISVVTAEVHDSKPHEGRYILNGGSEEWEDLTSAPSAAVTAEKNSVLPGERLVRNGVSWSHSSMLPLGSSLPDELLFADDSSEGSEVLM
The assay is described as follows: TR-FRET kinase activity assay, MERTK. It is filed as biochemical. As to conditions: for IC50: TR-FRET activity assay, ATP at Km, 60 minutes, read-out: Mer IC50; for Mer/Flt3 ratio (FLT3 IC50/Mer IC50): ratio calculated as FLT3 IC50/Mer IC50. The method in brief:
(§1)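 IC50 came from TR-FRET signal after 30 min dark development with a Europium-labeled phospho-specific antibody. This followed a 60 min RT reaction, stopped with EDTA, started with ATP at Km per enzyme. Peptide substrate, enzyme and compound were premixed in HEPES pH 7.5 buffer with MgCl2, EGTA, Brij 35 and DTT.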

In assay [2] the target is T2, FLT3 (Homo sapiens, UniProt P36888).
T2 sequence (P36888 27-993): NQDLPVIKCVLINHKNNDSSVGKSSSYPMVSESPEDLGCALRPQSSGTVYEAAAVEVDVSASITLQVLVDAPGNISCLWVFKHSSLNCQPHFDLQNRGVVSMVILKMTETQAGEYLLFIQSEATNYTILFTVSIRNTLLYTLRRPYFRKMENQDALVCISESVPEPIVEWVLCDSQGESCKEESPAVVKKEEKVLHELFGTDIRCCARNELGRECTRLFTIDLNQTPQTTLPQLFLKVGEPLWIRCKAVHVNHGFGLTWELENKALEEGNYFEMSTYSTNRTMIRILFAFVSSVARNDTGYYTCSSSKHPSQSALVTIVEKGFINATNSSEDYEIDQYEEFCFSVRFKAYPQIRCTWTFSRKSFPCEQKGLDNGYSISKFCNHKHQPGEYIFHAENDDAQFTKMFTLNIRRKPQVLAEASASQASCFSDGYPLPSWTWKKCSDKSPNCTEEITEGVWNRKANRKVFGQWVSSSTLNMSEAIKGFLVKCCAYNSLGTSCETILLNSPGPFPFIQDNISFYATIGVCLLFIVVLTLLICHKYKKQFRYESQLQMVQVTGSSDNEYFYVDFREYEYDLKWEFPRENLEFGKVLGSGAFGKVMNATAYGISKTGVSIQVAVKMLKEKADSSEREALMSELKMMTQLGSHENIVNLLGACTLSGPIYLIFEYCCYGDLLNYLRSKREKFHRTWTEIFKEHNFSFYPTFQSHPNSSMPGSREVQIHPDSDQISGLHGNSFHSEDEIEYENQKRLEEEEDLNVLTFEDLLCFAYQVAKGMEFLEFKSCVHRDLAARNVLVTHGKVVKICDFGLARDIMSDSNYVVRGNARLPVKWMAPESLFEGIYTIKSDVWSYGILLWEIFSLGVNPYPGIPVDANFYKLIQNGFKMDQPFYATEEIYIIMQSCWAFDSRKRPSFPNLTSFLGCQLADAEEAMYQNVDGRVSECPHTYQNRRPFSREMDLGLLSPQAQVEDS
In words: TR-FRET kinase activity assay, FLT3. It is filed as biochemical. Conditions: ATP at Km, 60 minutes. The method in brief:
as §1

For orientation: IC50 means the midpoint of a concentration-inhibition curve. With `C[C@@H](CC(F)(F)F)Nc1ncc2c(O[C@@H]3C[C@H]4CC[C@@H](C3)N4C[C@H]3CCOC3)ncc([C@H]3CC[C@H](O)CC3)c2n1` [Compound 414], in assay [1], the IC50 is no more than 100 nM and the “Mer/Flt3 ratio (FLT3 IC50/Mer IC50)” value is recorded as “+++ (a ratio of >100)”. In assay [2], this molecule displayed an IC50 of no more than 100 nM.
On to `C[C@@H](CC(F)(F)F)Nc1ncc2c(O[C@@H]3C[C@H]4CC[C@@H](C3)N4[C@@H]3CCOC3)ncc([C@H]3CC[C@H](O)CC3)c2n1` [Compound 415], for which, in assay [1], the IC50 is no more than 100 nM and the “Mer/Flt3 ratio (FLT3 IC50/Mer IC50)” value is on record as “+++ (a ratio of >100)”. Moreover, in assay [2], the IC50 was 100 to 1000 nM.
For `C[C@@H](CC(F)(F)F)Nc1ncc2c(O[C@@H]3C[C@H]4CC[C@@H](C3)N4C[C@@H]3CCOC3)ncc([C@H]3CC[C@H](O)CC3)c2n1` [Compound 416], the IC50 in assay [1] and in assay [2] was no more than 100 nM each time. The “Mer/Flt3 ratio (FLT3 IC50/Mer IC50)” value in assay [1] is “+++ (a ratio of >100)”.
Turning to `CO[C@H]1C[C@@H]1Nc1ncc2c(O[C@H]3C[C@@H](O)C3)ncc([C@H]3CC[C@H](O)CC3)c2n1` [Compound 417], the figures for the IC50 in assay [1] and in assay [2] were no more than 100 nM and 100 to 1000 nM, respectively. In assay [1], the “Mer/Flt3 ratio (FLT3 IC50/Mer IC50)” value is “+++ (a ratio of >100)”.
For `C[C@@H](CC(F)(F)F)Nc1ncc2c(OC3CC(C)(C)N(C[C@@H]4CCCO4)C(C)(C)C3)ncc([C@H]3CC[C@H](O)CC3)c2n1` [Compound 418] the same measures were no more than 100 nM, no more than 100 nM and “+++ (a ratio of >100)”.
Take `COC[C@H](C)Nc1ncc2c(O[C@H]3C[C@H](C(=O)N4CCN(C)CC4)C3)ncc([C@H]3CC[C@H](O)CC3)c2n1` [Compound 419]: in assay [1], the IC50 was no more than 100 nM and the “Mer/Flt3 ratio (FLT3 IC50/Mer IC50)” value is “+++ (a ratio of >100)”. The molecule further displayed an IC50 in assay [2] of 1000 to 10000 nM.
As for `C[C@@H](CC(F)(F)F)Nc1ncc2c(O[C@H]3C[C@H](CN4CCOCC4)C3)ncc([C@H]3CC[C@H](O)CC3)c2n1` [Compound 420], the IC50 in assay [1] is no more than 100 nM; in assay [2], 100 to 1000 nM. Also, the “Mer/Flt3 ratio (FLT3 IC50/Mer IC50)” value in assay [1] is listed as “+++ (a ratio of >100)”.
As for `C[C@@H](CC(F)(F)F)Nc1ncc2c(O[C@@H]3C[C@H]4CC[C@@H](C3)N4C[C@@H]3CCCO3)ncc([C@H]3CC[C@H](O)CC3)c2n1` [Compound 421], in assay [1], the IC50 is no more than 100 nM and the “Mer/Flt3 ratio (FLT3 IC50/Mer IC50)” value is on record as “+++ (a ratio of >100)”. The molecule further displayed an IC50 in assay [2] of no more than 100 nM.
Take `C[C@@H](CC(F)(F)F)Nc1ncc2c(O[C@H]3C[C@H](N4CCOCC4)C3)ncc([C@H]3CC[C@H](O)CC3)c2n1` [Compound 422]: in assay [1], the half-maximal inhibitory concentration (IC50) was no more than 100 nM and the “Mer/Flt3 ratio (FLT3 IC50/Mer IC50)” value was “+++ (a ratio of >100)”. Moreover, the IC50 in assay [2] fell in the range of 100 to 1000 nM.
In the case of `C[C@@H](CC(F)(F)F)Nc1ncc2c(O[C@H]3C[C@@H](O)C3)ncc([C@H]3CC[C@](C)(O)CC3)c2n1` [Compound 423], the IC50 in assay [1] was no more than 100 nM; in assay [2], 100 to 1000 nM. Besides, the “Mer/Flt3 ratio (FLT3 IC50/Mer IC50)” value in assay [1] was “+++ (a ratio of >100)”.
As for `C[C@@H](CC(F)(F)F)Nc1ncc2c(O[C@H]3C[C@@H](O)C3)ncc([C@H]3CC[C@@](C)(O)CC3)c2n1` [Compound 424], in assay [1], the IC50 is no more than 100 nM and the “Mer/Flt3 ratio (FLT3 IC50/Mer IC50)” value is given as “+++ (a ratio of >100)”. The same molecule displayed an IC50 in assay [2] of 100 to 1000 nM.
Take `COC[C@H](C)Nc1ncc2c(O[C@H]3C[C@@H](O)C3)ncc(-c3ccnnc3)c2n1` [Compound 425]: in assay [1], the IC50 was 100 to 1000 nM; the “Mer/Flt3 ratio (FLT3 IC50/Mer IC50)” value is “++ (a ratio of between 10 and 100)”. In addition, the IC50 in assay [2] lay within 1000 to 10000 nM.
For `COC[C@H](C)Nc1ncc2c(O[C@H]3C[C@@H](O)C3)ncc([C@H]3CC[C@](C)(O)CC3)c2n1` [Compound 426], the values for the IC50 in assay [1] and in assay [2] were no more than 100 nM and 1000 to 10000 nM, respectively. Further, in assay [1], the “Mer/Flt3 ratio (FLT3 IC50/Mer IC50)” value is reported as “+++ (a ratio of >100)”.
As to `COC[C@H](C)Nc1ncc2c(O[C@H]3C[C@@H](O)C3)ncc([C@H]3CC[C@@](C)(O)CC3)c2n1` [Compound 427], in assay [1], the IC50 is no more than 100 nM and the “Mer/Flt3 ratio (FLT3 IC50/Mer IC50)” value is “+++ (a ratio of >100)”. In assay [2], this molecule came in with an IC50 greater than 10000 nM.
For `C[C@@H](CC(F)F)Nc1ncc2c(O[C@H]3C[C@@H](O)C3)ncc([C@H]3CC[C@H](O)CC3)c2n1` [Compound 428] the same measures were no more than 100 nM, “+++ (a ratio of >100)” and 100 to 1000 nM.
With `C[C@@H](CC(F)(F)F)Nc1ncc2c(O[C@H]3C[C@@](C)(O)C3)ncc([C@H]3CC[C@H](O)CC3)c2n1` [Compound 429], the results for the IC50 in assay [1] and in assay [2] were no more than 100 nM and 100 to 1000 nM, respectively. For the same molecule, in assay [1], the “Mer/Flt3 ratio (FLT3 IC50/Mer IC50)” value is “+++ (a ratio of >100)”.
